# Test results: the METLIN SMRT retention time set (Domingo-Almenara et al. 2019)
# Assay: gradient 5% acetonitrile 3 min, to 50% in 2 min, to 85% in 15 min, held 3 min, 100 µL/min
# Details: column: Zorbax Extend-C18 2.1 x 50 mm; eluents: water / acetonitrile, 0.1% formic acid
# Summary of the method: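 Each retention time is based on an adduct peak selected computationally and verified by manual inspection. Measurements used HPLC–quadrupole time-of-flight mass spectrometry in positive and negative ionization mode on mixtures of ~100 pure standards. Chromatography ran on a Zorbax Extend-C18 column (2.1 × 50 mm, 1.8 μm) at 100 μL/min with water and acetonitrile, each containing 0.1% formic acid, and dead and dwell volumes of 40 μL and 900 μL.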
row,Structure (SMILES),RP-LC retention time
1,COc1ccc2nc(-c3ccc(Cl)cc3)cc(C(=O)O)c2c1,1090 s
2,Cc1ccccc1NC(=O)CSc1nnc2c3cc(-c4ccc(F)cc4)nn3ccn12,897 s
3,Cn1nc(-c2nnc(-c3ccccc3)o2)c2c1CCN(S(=O)(=O)c1cccc3nsnc13)C2,905 s
4,COc1cc(OC)cc(-c2noc(Cn3c(=O)n(CC(C)C)c(=O)c4ccccc43)n2)c1,1160 s
5,CCc1onc(C)c1C1CCCN1C(=O)c1c(Br)cnn1C (centres undefined),728 s
6,O=C(c1ccccn1)N1CCN(C(=O)c2nnn3c2COC(c2ccccc2)C3)CC1 (centres undefined),717 s
7,O=C(Nc1nnc(-c2ccsc2)o1)C1CC(=O)N(c2ccc(Cl)cc2)C1 (centres undefined),718 s
8,COc1ccc(-c2nnc(COc3cccc(NC(=O)c4ccccn4)c3)o2)cc1,941 s
9,O=C(NCCc1ccccn1)C1(CCO)CCN(c2ncccn2)C1 (centres undefined),526 s
10,O=C(NCc1ccc2c(c1)OCO2)C1CN(c2nc3c(F)cccc3s2)C1,776 s
11,Cc1nn(CC(=O)N2CCN(C(C)C)CC2)c(=O)c2nc(-c3ccccc3)sc12,620 s
12,CN1CCC(N2CCN(C(=O)CCc3cn(C)nc3-c3ccc(F)cc3)CC2)CC1,559 s
13,CCOC(=O)c1[nH]c(C)c(CCC(=O)N2CCC(C(=O)NCc3ccccc3OCC)CC2)c1C,832 s
14,COc1cccc2sc(N3CCN(c4ccccc4)CC3)nc12,996 s
15,Cc1nn(C)c(C)c1S(=O)(=O)N1CCc2c(c(-c3nnc(-c4ccc(F)cc4)o3)nn2C)C1,805 s
16,O=C(NCc1csc(-c2ccccc2)n1)C1CCCN(c2cc(-n3cccn3)ncn2)C1 (centres undefined),813 s
17,O=C(CCn1nnc2cc(-c3noc(COc4ccc(F)cc4)n3)ccc21)N1CCOCC1,823 s
18,O=C(CSCc1ccccc1)NCC1CCN(C(=O)Oc2ccccc2)CC1,853 s
19,Nc1nc(N)c2cc(Sc3cccc(C(F)(F)F)c3)ccc2n1,686 s
20,Clc1ccccc1-c1csc(Cc2nc(-c3ccc4c(c3)OCO4)no2)n1,1200 s

row,Structure (SMILES),RP-LC retention time
1,CC(C)(C)C1(C)NN=C2Sc3ccccc3N21 (centres undefined),1030 s
2,CC(C)c1nc(C2Cc3ccccc3N2C(=O)NCc2ccco2)no1 (centres undefined),889 s
3,Cc1ccccc1CNC(=O)Cn1cnc2onc(C)c2c1=O,738 s
4,Cc1ccc(-c2nc3cccc(C)n3c2Nc2ccccc2C)cc1,797 s
5,Cc1ccn2c(NC(=O)COc3ccc(Cl)cc3Cl)c(-c3ccccc3)nc2c1,799 s
6,Cc1cc(F)ccc1NC(=O)Cn1c(=O)cc(-c2nc(C(C)C)no2)c2ccccc21,996 s
7,CC(C(=O)N1CCC(N2CCCCC2)CC1)C1CCN(S(=O)(=O)c2ccc(Cl)s2)CC1 (centres undefined),681 s
8,CC(C)c1noc(C2CCCN(C(=O)NC(C)(C)C)CCC(=O)NCC2)n1 (centres undefined),690 s
9,O=C(c1ccc(Cl)s1)N1CC(c2nc(-c3cccc(C(F)(F)F)c3)no2)C1,1090 s
10,CC(C)CCNCC(O)Cn1c2ccc(Br)cc2c2cc(Br)ccc21 (centres undefined),906 s
11,O=S(=O)(c1ccccc1)N1CCC(c2noc(-c3ccc(F)cc3)n2)CC1,791 s
12,COc1ccc(C(=O)Nc2c(-c3ccc(F)cc3)nc3cc(C)ccn23)c(OC)c1,697 s
13,O=C(CN1C(=O)C(C(=O)N2CCCC2)Sc2ccccc21)N1CC=C(c2ccccc2)CC1 (centres undefined),897 s
14,O=C(NCc1cccc(F)c1)c1cn2cc(Cl)ccc2n1,799 s
15,CC(C)CN1C(=O)CSc2cnn(CC(=O)N3CCN(c4ccccc4)CC3)c(=O)c21,823 s
16,Cc1cccn2cc(C(=O)NCc3cc(F)ccc3F)nc12,655 s
17,CCC1(O)CCC12CCN(C(=O)CC1CCCC1)CC2 (centres undefined),830 s
18,COc1ccc(C(=O)NCCc2c[nH]c3ccc(Cl)cc23)cc1OC,817 s
19,CCCCNC(=O)C1CC(=O)N(CCc2c[nH]c3ccc(Cl)cc23)C1 (centres undefined),761 s
20,CCOc1ccc(-n2c(-c3ccc(Cl)cc3)cn3c4c(=O)n(C)c(=O)n(C)c4nc23)cc1,1050 s

row,Structure (SMILES),RP-LC retention time
1,N#Cc1cccnc1N1CCN(c2ccccn2)CC1,590 s
2,CCn1c(=O)c2c(cc(C)n2C)n(CC(=O)Nc2ccc(F)cc2F)c1=O,764 s
3,CC(C)[C@@H](CN1CC[C@@](C)(c2cccc(O)c2)[C@@H](C)C1)NC(=O)[C@H]1Cc2ccc(O)cc2CN1,555 s
4,O=C(Cc1c[nH]c2ccccc12)N1CCC(c2noc(-c3ccccc3)n2)CC1,914 s
5,CC(C)c1ccc(NC(=O)N2CCN(c3ccc4nncn4n3)CC2)cc1,672 s
6,Cc1ccc(CNC(=O)NC2CCN(c3nc4cccnc4n(C)c3=O)CC2)cc1,860 s
7,O=C(Cc1ccsc1)NC1CCN(c2ccc(=O)n(CCOc3ccccc3)n2)C1 (centres undefined),750 s
8,O=C(NCCc1c[nH]c2ccc(Cl)cc12)Nc1ccccc1,879 s
9,O=C1C2N=NN(Cc3nc(-c4ccccc4Cl)no3)C2C(=O)N1c1ccc2c(c1)CCC2 (centres undefined),1070 s
10,COc1ccccc1-c1nc(Cn2nnc(-c3nc(-c4ccc(C)cc4)no3)c2C)c(C)o1,1170 s
11,CCN(CC)CCNC(=O)CCc1cc2ccc(C)cc2[nH]c1=O,591 s
12,O=C(c1ccsc1)N1CCC2(CC1)NCc1ccccc1-n1ccnc12,588 s
13,CSc1ccc(-c2nc3cnccn3c2Nc2cccc(C(F)(F)F)c2)cc1,1020 s
14,C[C@H](NC(=O)/C(C#N)=C/c1cccc(Br)n1)c1ccccc1,934 s
15,Cc1cccc(NC(=O)C2CCCN(c3ncnc4c3nc3n4CCCCC3)C2)n1 (centres undefined),730 s
16,O=C(CCSc1ccccc1)N1CCN(c2ccc3nnc(-c4ccco4)n3n2)CC1,703 s
17,CSc1ccc(CNC(=O)CN2CCc3ccccc3C2C(=O)N2CCCCC2)cc1 (centres undefined),889 s
18,O=C(CCSc1ccccc1)NCC(c1ccco1)N1CCOCC1 (centres undefined),574 s
19,CCOC(=O)c1c(C)oc2ncnc(NCCc3c[nH]c4ccccc34)c12,1050 s
20,Cc1nc(C2CCCN2Cc2ccccc2C)n[nH]1 (centres undefined),546 s

# Now from value to molecule:
row,RP-LC retention time,Structure (SMILES)
1,611 s,CN(C)c1ccc(CNC(=O)CN2CCN(C(=O)Nc3ccc(Br)cc3)CC2=O)cc1
2,667 s,COCCn1c(CCCC(=O)NC2CCCCCC2)nc2cccnc21
3,566 s,CCCS(=O)(=O)NCCn1c(C)cnc1-c1ccccc1
4,641 s,COCC(=O)Nc1ccc2c(c1)CN(S(C)(=O)=O)CCO2
5,846 s,COc1ccc(NC(=O)N2CCCC(C)(C(=O)NCc3ccccc3)C2)c(OC)c1 (centres undefined)
6,1220 s,Cc1noc(C)c1S(=O)(=O)N1CCC2(CC1)CC(CCOc1ccc(F)cc1)CCO2 (centres undefined)
7,556 s,Cc1ccc(NC(=O)Cn2c(NCCN3CCOCC3)nc3ccccc32)cc1
8,771 s,Cn1c(=O)c2nc(S(=O)(=O)CCC(=O)Nc3cc(Cl)ccc3F)n(C)c2n(C)c1=O
9,870 s,O=C(C1CC1)N1CCc2sc(S(=O)(=O)Nc3ccc(F)cc3Cl)cc2C1
10,965 s,Cc1cc2nn(CC(=O)Nc3ccccc3)c(=O)n2c(Nc2ccccc2)n1
11,635 s,Cc1cccc(C)c1NC(=O)N1CCC(c2cc(=O)n3nccc3n2C)CC1
12,809 s,CCCN1C(=O)CN(S(=O)(=O)c2ccccc2)CC1(C)C(=O)NCc1ccccc1 (centres undefined)
13,859 s,COc1ccc(NC(=O)C2CCN(S(=O)(=O)c3c(C)nn(-c4ccccc4)c3C)CC2)cc1OC
14,772 s,CC1CCN(S(=O)(=O)c2cc(-c3ccc(=O)[nH]n3)cs2)CC1
15,908 s,CCn1cc(S(=O)(=O)Nc2cc(Cl)ccc2OC)c2cccnc21
16,619 s,O=C(C1CC1)N1CCCC(OCc2nc(-c3ccncc3)no2)C1 (centres undefined)
17,607 s,CC(C)C(=O)Nc1ccc2c(c1)nc(CN1CCOCC1)n2C(C)C
18,738 s,CS(=O)(=O)Nc1ccc2c(c1)C(=O)Nc1cc(Cl)ccc1O2
19,923 s,COc1ccc(N2CCN(C(=O)c3cc(S(=O)(=O)N4CCC(C)CC4)cn3C)CC2)cc1
20,684 s,CC(=O)N1CCCc2cc(S(=O)(=O)N3CCC(C(=O)Nc4cccc(C)n4)CC3)ccc21
21,762 s,COCCCNC(=O)c1nnc(-c2ccc(S(=O)(=O)N3CCC(C)CC3)cc2)o1
22,864 s,CCc1ccc(NS(=O)(=O)c2cc3c(s2)CCN(C(=O)C2CC2)C3)cc1
23,998 s,CCCS(=O)(=O)c1nc2ccc(NS(=O)(=O)c3cc(C)cc(C)c3)cc2s1
24,834 s,Cc1cc(C)cc(NC(=O)C2CCN(S(=O)(=O)c3ccc4c(c3)CCCC(=O)N4)CC2)c1
25,753 s,COc1cccc(-c2nnc(NC(=O)C3CCCCC3)o2)c1
26,804 s,Cc1ccc(F)cc1NC(=O)Cn1nc2nc(N3CCCC(C)C3)ccn2c1=O (centres undefined)
27,815 s,COc1cccc(NC(=O)NCc2cc(C)oc2C)c1OC
28,628 s,CCOC(=O)Nc1ccc2c(c1)CN(C(C)=O)CC2
29,914 s,Cc1ccc2c(c1)N(S(C)(=O)=O)CCC(C(=O)NC1CCCCC1)O2 (centres undefined)
